Source: paper PMC6366416, “Synthesis and in vitro anticancer activity of certain novel 1-(2-methyl-6-arylpyridin-3-yl)-3-phenylureas as apoptosis-inducing agents” (Journal of Enzyme Inhibition and Medicinal Chemistry, 2019)

What was measured:
WI-38 cell line = test: MTT cytotoxicity towards non-tumorigenic cells; format: cell-based, human; conditions: for IC50: WI-38, MTT, non-tumorigenic human lung fibroblast, mean ± SD of three experiments; for S. I. WI-38/A549: selectivity index, IC50 WI-38 / IC50 A549
Procedure: The cytotoxic activity of all synthesized pyridines 5a–l were assessed against non-tumorigenic human lung fibroblast WI-38 cell line to investigate their safety, using the MTT colorimetric assay.

OVCAR-5 = test: NCI one-dose SRB growth inhibition; format: cell-based; conditions: Homo sapiens, Ovarian Cancer, 48 h, read-out: GI% OVCAR-5
Procedure: (§1) The antitumor assay was performed according to the protocol of the Drug Evaluation Branch, NCI, Bethesda[24–26]. A 48 h drug exposure protocol was adopted, and sulforhodamine B (SRB) assay[27] was utilized to assess the cell growth and viability, as reported earlier[17]^,[28].
(§2) The structures of all the newly synthesized pyridines 5a–l were submitted to the National Cancer Institute (NCI) Developmental Therapeutic Program (www.dtp.nci.nih.gov). […] Nine different types of cancer were tested in this assay: colon, ovarian, prostate, leukemia, melanoma, CNS, renal, breast and lung cancers. A 48 h drug exposure protocol was adopted, and sulforhodamine B (SRB) assay[27] was utilized to assess the cell growth and viability.

T-47D = test: NCI one-dose SRB growth inhibition; format: cell-based; conditions: Homo sapiens, T47D, 48 h, Breast Cancer, read-out: GI% T-47D
Procedure: as §1, §2

MCF7 = test: NCI one-dose SRB growth inhibition; format: cell-based; conditions: Homo sapiens, Breast Cancer, 48 h, read-out: GI% MCF7
Procedure: as §1, §2

OVCAR-3 = test: NCI one-dose SRB growth inhibition; format: cell-based; conditions: Homo sapiens, OVCAR-3, 48 h, Ovarian Cancer, read-out: GI% OVCAR-3
Procedure: as §1, §2

BT-549 = test: NCI one-dose SRB growth inhibition; format: cell-based; conditions: Homo sapiens, Breast Cancer, 48 h, read-out: GI% BT-549
Procedure: as §1, §2

U251 = test: NCI one-dose SRB growth inhibition; format: cell-based; conditions: Homo sapiens, U-251, CNS Cancer, 48 h, read-out: GI% U251
Procedure: as §1, §2

M14 = test: NCI one-dose SRB growth inhibition; format: cell-based; conditions: Homo sapiens, M14, 48 h, Melanoma, read-out: GI% M14
Procedure: as §1, §2

HCT-116 = test: NCI one-dose SRB growth inhibition; format: cell-based; conditions: Homo sapiens, HCT-116, 48 h, Colon Cancer, read-out: GI% HCT-116
Procedure: as §1, §2

RPMI-8226 = test: NCI one-dose SRB growth inhibition; format: cell-based; conditions: Homo sapiens, RPMI-8226, 48 h, Leukemia, read-out: GI% RPMI-8226
Procedure: as §1, §2

MDA-MB-468 = test: NCI one-dose SRB growth inhibition; format: cell-based; conditions: Homo sapiens, Breast Cancer, 48 h, read-out: GI% MDA-MB-468
Procedure: as §1, §2

UO-31 = test: NCI one-dose SRB growth inhibition; format: cell-based; conditions: Homo sapiens, Renal Cancer, 48 h, read-out: GI% UO-31
Procedure: as §1, §2

HOP-62 = test: NCI one-dose SRB growth inhibition; format: cell-based; conditions: Homo sapiens, Non-Small Cell Lung Cancer, 48 h, read-out: GI% HOP-62
Procedure: as §1, §2

UACC-62 = test: NCI one-dose SRB growth inhibition; format: cell-based; conditions: Homo sapiens, UACC-62, 48 h, Melanoma, read-out: GI% UACC-62
Procedure: as §1, §2

PC-3 = test: NCI one-dose SRB growth inhibition; format: cell-based; conditions: Homo sapiens, PC-3, 48 h, Prostate, read-out: GI% PC-3
Procedure: as §1, §2

SK-MEL-5 = test: NCI one-dose SRB growth inhibition; format: cell-based; conditions: Homo sapiens, Melanoma, 48 h, read-out: GI% SK-MEL-5
Procedure: as §1, §2

MDA-MB-231 = test: NCI one-dose SRB growth inhibition; format: cell-based; conditions: Homo sapiens, Breast Cancer, 48 h, read-out: GI% MDA-MB-231
Procedure: as §1, §2

SN12C = test: NCI one-dose SRB growth inhibition; format: cell-based; conditions: Homo sapiens, Renal Cancer, 48 h, read-out: GI% SN12C
Procedure: as §1, §2

IGROV1 = test: NCI one-dose SRB growth inhibition; format: cell-based; conditions: Homo sapiens, IGROV-1, Ovarian Cancer, 48 h, read-out: GI% IGROV1
Procedure: as §1, §2

EKVX = test: NCI one-dose SRB growth inhibition; format: cell-based; conditions: Homo sapiens, Non-Small Cell Lung Cancer, 48 h, read-out: GI% EKVX
Procedure: as §1, §2

SR = test: NCI one-dose SRB growth inhibition; format: cell-based; conditions: Homo sapiens, 48 h, Leukemia, read-out: GI% SR
Procedure: as §1, §2

SK-OV-3 = test: NCI one-dose SRB growth inhibition; format: cell-based; conditions: Homo sapiens, Ovarian Cancer, 48 h, read-out: GI% SK-OV-3
Procedure: as §1, §2

A549/ATCC = test: NCI one-dose SRB growth inhibition; format: cell-based; conditions: Homo sapiens, A549, 48 h, Non-Small Cell Lung Cancer, read-out: GI% A549/ATCC
Procedure: as §1, §2

[1] = tested on: 60 cancer cell lines (NCI, USA); test: NCI one-dose SRB assay, whole panel; format: cell-based, human; conditions: 10 μM; cell lines with GI% higher than 10%
Procedure: as §1, §2

A549 cell line = test: MTT anti-proliferative assay; format: cell-based; conditions: Homo sapiens, 48 h of incubation, mean ± SD of three experiments
Procedure: (§3) A549 (non-small cell lung cancer cell line) and HCT-116 (human colon cancer cell line), were obtained from American Type Culture Collection (Manassas, VA, USA). The cells were maintained in Dulbecco’s Modified Eagle’s Medium (DMEM) (Sigma-Aldrich, St. Louis, MO), and supplemented with 10% heat-inactivated FBS (Hyclone), 10 μg/mL of insulin (Manufacturer, Sigma, St. Louis, MO, USA), and 1% penicillin-streptomycin. MTT assay[29] was adopted to assess the in vitro antitumor activity of the newly synthesized pyridines 5a–l according to the reported procedures, using Doxorubicin as a standard treatment. Experimental conditions were tested using three replicates (three wells of the 96-well plate per experimental condition) and all experiments were carried out in triplicates. IC50 values were calculated by the use of the equation for Boltzman sigmoidal concentration–response curve using the nonlinear regression fitting models by Graph Pad, Prism version 5 (GraphPad Software Inc., La Jolla, CA).
(§4) All newly synthesized pyridines 5a–l were examined for their anti-proliferative activity towards two cancer cell lines: non-small cell lung cancer A549 cell line and colon cancer HCT-116 cell line. The MTT colorimetric assay was adopted to assess the anti-proliferative activity as described by Mosmann[29]. Doxorubicin was used as a control in this assay.

HCT-116 cell line = test: MTT anti-proliferative assay; format: cell-based; conditions: Homo sapiens, 48 h of incubation, mean ± SD of three experiments
Procedure: as §3, §4

| SMILES | IC50 (WI-38 cell line) [µM] | S. I. WI-38/A549 (WI-38 cell line) | inhibition at 10 µM (OVCAR-5) [%] | inhibition at 10 µM (T-47D) [%] | inhibition at 10 µM (MCF7) [%] | inhibition at 10 µM (OVCAR-3) [%] | inhibition at 10 µM (BT-549) [%] | inhibition at 10 µM (U251) [%] | inhibition at 10 µM (M14) [%] | inhibition at 10 µM (HCT-116) [%] | inhibition at 10 µM (RPMI-8226) [%] | inhibition at 10 µM (MDA-MB-468) [%] | inhibition at 10 µM (UO-31) [%] | inhibition at 10 µM (HOP-62) [%] | inhibition at 10 µM (UACC-62) [%] | inhibition at 10 µM (PC-3) [%] | inhibition at 10 µM (SK-MEL-5) [%] | inhibition at 10 µM (MDA-MB-231) [%] | inhibition at 10 µM (SN12C) [%] | inhibition at 10 µM (IGROV1) [%] | other results |
| --- | --- | --- | --- | --- | --- | --- | --- | --- | --- | --- | --- | --- | --- | --- | --- | --- | --- | --- | --- | --- | --- |
| Cc1nc(-c2ccc(Cl)cc2)ccc1NC(=O)Nc1cccc(C(F)(F)F)c1 [Compound 5e, 1-(6-(4-Chlorophenyl)-2-methylpyridin-3-yl)-3-(3-(trifluoromethyl)phenyl)urea] | 130 ± 9.22 | 11.0 | < 10 | 13 | 20 | < 10 | < 10 | 24 | < 10 | 26 | 15 | < 10 | < 10 | < 10 | < 10 | 20 | < 10 | < 10 | < 10 | < 10 | inhibition at 10 µM (EKVX): < 10%; inhibition at 10 µM (SR): 41%; inhibition at 10 µM (SK-OV-3): < 10%; inhibition at 10 µM (A549/ATCC): 10%; Sensitive cell lines no. [1]: 17; IC50 (A549 cell line): 11.9 ± 0.92 µM; IC50 (HCT-116 cell line): 7.05 ± 0.72 µM |
| COc1ccc(NC(=O)Nc2ccc(-c3ccc(Cl)cc3)nc2C)cc1 [Compound 5f, 1-(6-(4-Chlorophenyl)-2-methylpyridin-3-yl)-3-(4-methoxyphenyl) urea] | 116 ± 9.61 | 14.7 | < 10 | < 10 | 23 | < 10 | < 10 | < 10 | 38 | 21 | 14 | < 10 | < 10 | < 10 | 27 | < 10 | 38 | < 10 | < 10 | < 10 | inhibition at 10 µM (EKVX): < 10%; inhibition at 10 µM (SR): 28%; inhibition at 10 µM (SK-OV-3): < 10%; inhibition at 10 µM (A549/ATCC): 25%; Sensitive cell lines no. [1]: 19; IC50 (A549 cell line): 7.9 ± 0.54 µM; IC50 (HCT-116 cell line): 12.6 ± 1.08 µM |
| Cc1nc(-c2cccs2)ccc1NC(=O)Nc1ccc(F)cc1 [Compound 5h, 1-(4-Fluorophenyl)-3-(2-methyl-6-(thiophen-2-yl)pyridin-3-yl)urea] | 143 ± 8.38 | 13.4 | < 10 | 15 | 22 | < 10 | < 10 | < 10 | < 10 | 22 | 24 | 16 | 13 | < 10 | 18 | 19 | 12 | < 10 | < 10 | < 10 | inhibition at 10 µM (EKVX): < 10%; inhibition at 10 µM (SR): 18%; inhibition at 10 µM (SK-OV-3): < 10%; inhibition at 10 µM (A549/ATCC): 32%; Sensitive cell lines no. [1]: 23; IC50 (A549 cell line): 10.6 ± 0.86 µM; IC50 (HCT-116 cell line): 8.25 ± 0.84 µM |
| CCOC(=O)c1ccc(NC(=O)Nc2ccc(-c3cccs3)nc2C)cc1 [Compound 5j, Ethyl 4-(3-(2-methyl-6-(thiophen-2-yl)pyridin-3-yl)ureido)benzoate] | 107 ± 7.02 | 13.3 | < 10 | < 10 | 21 | < 10 | 15 | 21 | 38 | 27 | 56 | 13 | < 10 | < 10 | < 10 | 52 | 22 | < 10 | < 10 | < 10 | inhibition at 10 µM (EKVX): < 10%; inhibition at 10 µM (SR): 44%; inhibition at 10 µM (SK-OV-3): < 10%; inhibition at 10 µM (A549/ATCC): 35%; Sensitive cell lines no. [1]: 24; IC50 (A549 cell line): 8.04 ± 0.59 µM; IC50 (HCT-116 cell line): 9.38 ± 0.67 µM |
